In patent US12227520B2 (priority 2019, dated 2025):
Where two headings read alike, the source gives them in different places.

Experiments:
[1] = test system: pLai RLuc reporter virus; assay: microbe, parasite or virus in culture; assay type: cell-based, HIV; details: Human immunodeficiency virus 1, 72 h
Summary of the method: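 MT-4 cells pre-infected 2 h at 37 °C with pLai RLuc virus, then exposed to 1:3 serial dilutions of compound in RPMI/10% FBS with or without 50% human serum for 72 h at 37 °C. Renilla luminescence read-out; serum shift = EC50(HS/CCM)/EC50(CCM).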

[2] = test system: HIV-1 (IIIB); assay: Antiviral assay in MT-4 cells (HIV MT-4 antiviral assay); assay type: cell-based; details: Human immunodeficiency virus 1, IIIB, MT4, 120 h, HIV-1 (IIIB) in MT-4 cells, 5 days incubation; read-out: EC50
Summary of the method: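 MT-4 cells infected with HIV-1 IIIB (1:250 diluted stock) and exposed to 1:3 serially diluted compound in RPMI with 10% FBS. Viability read by CellTiter-Glo luminescence after 5 days at 37° C; mock-infected cells and 5 μM AZT as controls.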

[3] = Cytotoxicity assay in MT-4 cells; assay type: cell-based, human; details: human, uninfected MT-4 cells, 5 days incubation; read-out: CC50
Summary of the method: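 Infected MT-4 cells (HIV-1 IIIB, fresh 1:250 dilution of concentrated stock) or mock-infected cells exposed to compounds for 5 days at 37 °C. Viability by CellTiter-Glo luminescence; 5 μM AZT positive control, no-drug negative control. Uninfected cells used for cytotoxicity, with 10 μM puromycin as base-level cytotoxicity control.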

[4] = read-out: Antiviral Serum Shift RLuc 50% HS, HS/CCM (RPMI media, 10% FBS, 50% HS, 1% P/S), 72-h incubation
[5] = read-out: Antiviral Serum Shift RLuc CCM, CCM (RPMI media, 10% FBS, 1% P/S), 72-h incubation

Row | SMILES | EC50 [1, 4] [nM] | EC50 [1, 5] [nM] | EC50 [2] [nM] | CC50 at 5 days [3] [nM]
1 | C[C@@H]1C=C[C@H](CF)N2C[C@H]1n1cc(C(=O)NCc3ccc(F)cc3F)c(=O)c(O)c1C2=O [Example 192, (3R,6R,7S)—N-(2,4-difluorobenzyl)-3-(fluoromethyl)-12-hydroxy-6-methyl-1,11-dioxo-1,6,7,11-tetrahydro-3H-2,7-methanopyrido[1,2-a][1,4]diazonine-10-carboxamide] | 6.57 | 0.252 | 0.913 | 5570
2 | O=C(NCc1ccc(F)cc1F)c1cn2c(c(O)c1=O)C(=O)N1CC=CC[C@@H]2C1 [Example 47-1, (7R)—N-(2,4-difluorobenzyl)-12-hydroxy-1,11-dioxo-1,6,7,11-tetrahydro-3H-2,7-methanopyrido[1,2-a][1,4]diazonine-10-carboxamide] | 25.7 | 0.682 | 4.93 | 11100
3 | O=C(NCc1ccc(F)cc1F)c1cn2c(c(O)c1=O)C(=O)N1CC2CCc2ccccc21 (stereo not drawn) [Example 36, N-(2,4-difluorobenzyl)-7-hydroxy-6,8-dioxo-6,8,13,14-tetrahydro-12H-5,12-methanobenzo[e]pyrido[1,2-a][1,4]diazonine-9-carboxamide] | 7.16 | 0.917 | 2 | 17700
4 | O=C(NCc1c(F)cc(F)cc1F)c1cn2c(c(O)c1=O)C(=O)N1C[C@H]2CCc2c(F)cccc21 [Example 43-2, (12R)-1-fluoro-7-hydroxy-6,8-dioxo-N-(2,4,6-trifluorobenzyl)-6,8,13,14-tetrahydro-12H-5,12-methanobenzo[e]pyrido[1,2-a][1,4]diazonine-9-carboxamide] | 0.647 | 0.289 | 1.57 | 9150
5 | O=C(NCc1c(F)cc(F)cc1F)c1cn2c(c(O)c1=O)C(=O)N1CCc3cc(F)c(F)cc3[C@H]2C1 (single isomer, unassigned) [Example 110-1] | 2.75 | 0.323 | 2 | 9870
6 | O=C(NCc1c(F)cc(F)cc1F)c1cn2c(c(O)c1=O)C(=O)N1CCC[C@@H](O)C[C@H]2C1 [Example 82-2, (6R,8S)-6,13-dihydroxy-1,12-dioxo-N-(2,4,6-trifluorobenzyl)-1,3,4,5,6,7,8,12-octahydro-2,8-methanopyrido[1,2-a][1,4]diazecine-11-carboxamide] | 3 | 2.09 | 9.57 | > 50000
7 | C[C@]1(F)CCN2C[C@H](C1)n1cc(C(=O)NCc3c(F)cc(F)cc3F)c(=O)c(O)c1C2=O [Example 115-1, (5S,7S)-5-fluoro-12-hydroxy-5-methyl-1,11-dioxo-N-(2,4,6-trifluorobenzyl)-1,4,5,6,7,11-hexahydro-3H-2,7-methanopyrido[1,2-a][1,4]diazonine-10-carboxamide] | 0.713 | 0.271 | 1.48 | 12200
8 | C[C@H]1CC[C@H](F)[C@H]2CN1C(=O)c1c(O)c(=O)c(C(=O)NCc3c(F)cc(F)cc3F)cn12 [Example 157, (3S,6S,7R)-6-fluoro-12-hydroxy-3-methyl-1,11-dioxo-N-(2,4,6-trifluorobenzyl)-1,4,5,6,7,11-hexahydro-3H-2,7-methanopyrido[1,2-a][1,4]diazonine-10-carboxamide] | 5.75 | 1.61 | 5.36 | 23700
9 | O=C(NCc1ccc(F)cc1F)c1cn2c(c(O)c1=O)C(=O)N1CCC[C@@H](F)[C@@H]2C1 [Example 172-1, (6R,7S)—N-(2,4-difluorobenzyl)-6-fluoro-12-hydroxy-1,11-dioxo-1,4,5,6,7,11-hexahydro-3H-2,7-methanopyrido[1,2-a][1,4]diazonine-10-carboxamide] | 42.7 | 0.689 | 2.4 | 15600
10 | CC[C@]1(O)CCCN2C[C@H]1n1cc(C(=O)NCc3ccc(F)cc3F)c(=O)c(O)c1C2=O [Example 77, (6S,7R)—N-(2,4-difluorobenzyl)-6-ethyl-6,12-dihydroxy-1,11-dioxo-1,4,5,6,7,11-hexahydro-3H-2,7-methanopyrido[1,2-a][1,4]diazonine-10-carboxamide] | 2.13 | 0.762 | 2.17 | 15100
11 | O=C(NCc1c(F)cc(F)cc1F)c1cn2c(c(O)c1=O)C(=O)N1C[C@@H]2CS(=O)(=O)c2ccccc21 [Example 96, (6R)-1-hydroxy-2,14-dioxo-N-(2,4,6-trifluorobenzyl)-2,6,7,14-tetrahydro-6,13-methanobenzo[b]pyrido[2,1-f][1,4,7]thiadiazonine-3-carboxamide 8,8-dioxide] | 3.33 | 3.09 | 18.1 | > 50000
12 | O=C(NCc1c(F)cc(F)cc1F)c1cn2c(c(O)c1=O)C(=O)N1CCCC[C@]2(CF)C1 [Example 163-2, (7R)—N-(2,4,6-trifluorobenzyl)-7-(fluoromethyl)-12-hydroxy-1,11-dioxo-1,4,5,6,7,11-hexahydro-3H-2,7-methanopyrido[1,2-a][1,4]diazonine-10-carboxamide] | 15.3 | 0.118 | 2.29 | 13800
13 | O=C(NCc1ccc(F)cc1F)c1cn2c(c(O)c1=O)C(=O)N1Cc3ccccc3C[C@H]2C1 [Example 71, (6S)—N-(2,4-difluorobenzyl)-1-hydroxy-2,14-dioxo-2,7,12,14-tetrahydro-6H-6,13-methanobenzo[f]pyrido[1,2-a][1,4]diazonine-3-carboxamide] | 1.66 | 0.302 | 2.14 | 15000
14 | O=C(NCc1ccc(F)cc1F)c1cn2c(c(O)c1=O)C(=O)N1CC/C=C\C[C@H]2C1 [Example 44-2, (8S,Z)—N-(2,4-difluorobenzyl)-13-hydroxy-1,12-dioxo-1,3,4,7,8,12-hexahydro-2,8-methanopyrido[1,2-a][1,4]diazecine-11-carboxamide] | 36.8 | 0.264 | 2.36 | 15100
15 | C[C@H]1CC[C@H]2CN(C(=O)c3c(O)c(=O)c(C(=O)NCc4c(F)cc(F)cc4F)cn32)[C@H]1C [Example 108-2, (3S,4S,7S)-12-hydroxy-3,4-dimethyl-1,11-dioxo-N-(2,4,6-trifluorobenzyl)-1,4,5,6,7,11-hexahydro-3H-2,7-methanopyrido[1,2-a][1,4]diazonine-10-carboxamide] | 1.55 | 0.335 | 0.917 | 11800
16 | C[C@@H]1[C@H]2CCCCN1C(=O)c1c(O)c(=O)c(C(=O)NCc3ccc(F)cc3F)cn12 [Example 7, (7R,13R)—N-(2,4-difluorobenzyl)-12-hydroxy-13-methyl-1,11-dioxo-1,4,5,6,7,11-hexahydro-3H-2,7-methanopyrido[1,2-a][1,4]diazonine-10-carboxamide] | 1.47 | 0.28 | 1.4 | 8810
17 | O=C(NCc1c(F)cc(F)cc1F)c1cn2c(c(O)c1=O)C(=O)N1C[C@@H]2CCc2c(Cl)cccc21 [Example 45-1, (12S)-1-chloro-7-hydroxy-6,8-dioxo-N-(2,4,6-trifluorobenzyl)-6,8,13,14-tetrahydro-12H-5,12-methanobenzo[e]pyrido[1,2-a][1,4]diazonine-9-carboxamide] | 2.56 | 0.359 | 1.66 | 6900
18 | O=C(NCc1c(F)cc(F)cc1F)c1cn2c(c(O)c1=O)C(=O)N1C[C@H]2CCCc2ccccc21 [Example 80-2, (6R)-1-hydroxy-2,15-dioxo-N-(2,4,6-trifluorobenzyl)-2,6,7,8,9,15-hexahydro-6,14-methanobenzo[e]pyrido[1,2-a][1,4]diazecine-3-carboxamide] | 7.54 | 0.618 | 5.35 | 13400
19 | C[C@@H]1CCC[C@H]2CN1C(=O)c1c(O)c(=O)c(C(=O)NCc3ccc(F)cc3F)cn12 [Example 52-1, (3R, 7S)—N-(2,4-difluorobenzyl)-12-hydroxy-3-methyl-1,11-dioxo-1,4,5,6,7,11-hexahydro-3H-2,7-methanopyrido[1,2-a][1,4]diazonine-10-carboxamide] | 6.18 | 0.245 | 2.15 | 13100
20 | O=C(NCc1ccc(F)cc1F)c1cn2c(c(O)c1=O)C(=O)N1CC[C@@H](F)C[C@@H]2C1 [Example 56-4, (5R, 7R)—N-(2,4-difluorobenzyl)-5-fluoro-12-hydroxy-1,11-dioxo-1,4,5,6,7,11-hexahydro-3H-2,7-methanopyrido[1,2-a][1,4]diazonine-10-carboxamide] | 15.4 | 2.16 | 8.09 | 30500
21 | C[C@H]1C=C[C@H](C)N2C[C@H]1n1cc(C(=O)NCc3c(F)cc(F)cc3F)c(=O)c(O)c1C2=O [Example 183, (3S,6S,7S)-12-hydroxy-3,6-dimethyl-1,11-dioxo-N-(2,4,6-trifluorobenzyl)-1,6,7,11-tetrahydro-3H-2,7-methanopyrido[1,2-a][1,4]diazonine-10-carboxamide] | 5.71 | 0.262 | 0.869 | 10500
